Results as given in patent US7399784B2, “Tocopherol and tocotrienol anti-obesity medicaments” (Children's Hospital & Research Center at Oakland, priority 2002, dated 2008).

What was measured:
[1] = treatment of diabetes; Malinowski et al. 2000; cited from earlier work
[2] = tested on: embryonic cell (C3H10T1/2); experiment: Adipocyte differentiation of C3H10T1/2 cells induced with insulin plus drugs; type: cell-based; conditions: differentiation induced with insulin plus indomethacin, troglitazone or 15-deoxy-delta(12,14)-prostaglandin-J2
Text: For these example, differentiation was induced in the presence of insulin with drugs, including indomethacin, and troglitazone, one of the anti-diabetes drugs of the thiazolidinedione family, as well as 15-deoxy-delta (12, 14)-prostaglandin-J2, a putative endogenous ligand for the peroxisome proliferator-activated receptor-gamma. Our results clearly indicate that tocopherols and tocotrienols inhibit adipogenesis.

[3] = tested on: leptin; conditions: healthy individuals; Ismermann et al. 1999; cited from earlier work
[4] = tested on: adipocytes; experiment: Weight gain and adipocyte triglyceride accumulation in mice fed a high-fat diet; type: in vivo, BALB/c mice; conditions: food admixture 0.1%, 3%, 0.02% or 0.01%
Protocol: We evaluate weight gain and triglyceride accumulation in adipocytes in mice fed a high-fat diet. Six-week-old BALB/c mice are fed powdered chow with various tocopherols and tocotrienols and mixtures thereof, as 0.1%, 3%, 0.02%, or 0.01% food admixtures. For histological analysis of adipose and hepatic tissues and determination of adipocyte size, adipose tissue is removed from each animal and fixed in 10% formaldehyde/PBS and maintained at 4° C. until use. Fixed specimens are dehydrated, embedded in tissue-freezing medium and frozen in dry ice and acetone. White adipose tissue is cut into 10-μm sections, and the sections mounted on silanized slides. The adipose tissue is stained with hematoxylin and eosin (H&E). Mature white adipocytes are identified by their characteristic […] appearance. Total adipocyte areas are traced manually and analyzed with Win ROOF software (Mitani Co. Ltd., Chiba, Japan). White adipocyte areas are measured in 400 or more cells per mouse in each group according to methods previously described (Kubota, N. et al.1999, Mol. Cell. 4:597-609).

[5] = tested on: insulin-secreting cells; conditions: Sjoholm et al. 2000; cited from earlier work

CCc1ccc(CCOc2ccc(CC3SC(=O)NC3=O)cc2)nc1 (stereo not drawn) [proglitazone]
weight gain and obesity [1]: commonly leads to weight gain and obesity

CN(CCOc1ccc(CC2SC(=O)NC2=O)cc1)c1ccccn1 (stereo not drawn) [rosiglitazone]
weight gain and obesity [1]: commonly leads to weight gain and obesity

Cc1c(C)c2c(c(C)c1O)CC[C@@](C)(CCC[C@H](C)CCC[C@H](C)CCCC(C)C)O2 [alpa-T, alpha-tocopherol, reference compound]
anti-adipogenesis activity (inhibition of differentiation to adipocytes) [2]: much less effective
intracellular triglyceride accumulation [2]: much less effective
leptin expression [3]: induces leptin expression

CC(C)=CCC/C(C)=C/CC/C(C)=C/CC[C@]1(C)CCc2cc(O)cc(C)c2O1 [delta-tocotrienol]
triglyceride accumulation in adipocytes [4]: reduced triglyceride accumulation in adipocytes
weight gain [4]: reduced weight gain
anti-adipogenesis activity (inhibition of differentiation to adipocytes) [2]: dose-dependent anti-adipogenesis activity
intracellular triglyceride accumulation [2]: decrease intracellular triglyceride accumulation

Cc1c(O)cc2c(c1C)O[C@](C)(CCC[C@H](C)CCC[C@H](C)CCCC(C)C)CC2 [gamma-T, gamma-tocopherol]
triglyceride accumulation in adipocytes [4]: reduced triglyceride accumulation in adipocytes
weight gain [4]: reduced weight gain
protection against functional inhibition by nitric oxide [5]: partially protects
anti-adipogenesis activity (inhibition of differentiation to adipocytes) [2]: dose-dependent anti-adipogenesis activity
intracellular triglyceride accumulation [2]: decrease intracellular triglyceride accumulation

Cc1cc(O)cc2c1O[C@](C)(CCC[C@H](C)CCC[C@H](C)CCCC(C)C)CC2 [delta-T, delta-tocopherol]
triglyceride accumulation in adipocytes [4]: reduced triglyceride accumulation in adipocytes
weight gain [4]: reduced weight gain
anti-adipogenesis activity (inhibition of differentiation to adipocytes) [2]: dose-dependent anti-adipogenesis activity
intracellular triglyceride accumulation [2]: decrease intracellular triglyceride accumulation

Cc1c(C)c2c(c(C)c1O)CCC(C)(COc1ccc(CC3SC(=O)NC3=O)cc1)O2 (stereo not drawn) [troglitazone]
weight gain and obesity [1]: commonly leads to weight gain and obesity

CC(C)=CCC/C(C)=C/CC/C(C)=C/CC[C@]1(C)CCc2cc(O)c(C)c(C)c2O1 [gamma-tocotrienol]
triglyceride accumulation in adipocytes [4]: reduced triglyceride accumulation in adipocytes
weight gain [4]: reduced weight gain
anti-adipogenesis activity (inhibition of differentiation to adipocytes) [2]: dose-dependent anti-adipogenesis activity
intracellular triglyceride accumulation [2]: decrease intracellular triglyceride accumulation

alpha-tocotrienol
triglyceride accumulation in adipocytes [4]: reduced triglyceride accumulation in adipocytes
weight gain [4]: reduced weight gain
anti-adipogenesis activity (inhibition of differentiation to adipocytes) [2]: dose-dependent anti-adipogenesis activity
intracellular triglyceride accumulation [2]: decrease intracellular triglyceride accumulation
